Reference: ChEMBL document CHEMBL3885861, “Open TG-GATES”

Species: Rattus norvegicus
Assay: Open TG-GATES - Regimen: Single
Assay type: toxicity, organism-based, Sprague-Dawley
Set-up: regimen Single, gender Male, age 6 weeks
Details: in vivo, po, 5 mg/kg, route gavage; for LIVER: tissue Liver
[1] = 9 h, tissue Plasma, dose level Low
[2] = 24 h, tissue Blood, dose level High
[3] = 24 h, tissue Blood, dose level Low
[4] = 24 h, tissue Kidney, dose level High
[5] = 24 h, tissue Plasma, dose level High

## COc1ccc2c(c1)c(CC(=O)O)c(C)n2C(=O)c1ccc(Cl)cc1 [INDOMETHACIN]
9 h, tissue Plasma, dose level High
  gamma-GTP: 2.6 IU/L
[1]
  A/G: 1.7
  ALP: 793.6 IU/L
  AST: 72.6 IU/L
  BUN: 9.8 mg/dL
  CRE: 0.3 mg/dL
  Ca: 10.3 mg/dL
  Cl: 104 meq/L
  DBIL: 0.076 mg/dL
  GLC: 197.6 mg/dL
  K: 3.8 meq/L
  LDH: 194 IU/L
  Na: 141.4 meq/L
  PL: 137 mg/dL
  RALB: 3.3 g/dL
  TBIL: 0.1 mg/dL
  TC: 76.2 mg/dL
  TG: 31.8 mg/dL
  gamma-GTP: 1.2 IU/L
24 h, dose level High
  TERMINAL_BW: 211.4 g
  LIVER: 9.9 g
24 h, dose level Low
  TERMINAL_BW: 236.2 g
  LIVER: 11.3 g
[2]
  APTT: 17.1 s
  Bas: 0%
  Eos: 0.8%
  Fbg: 232.2 mg/dL
  Hb: 13 g/dL
  Ht: 39.2%
  Lym: 78%
  MCH: 21.9 pg
  MCHC: 33.2%
  MCV: 65.9 fL
  Mono: 8.2%
  Neu: 13.4%
  PT: 12.2 s
  Plat: 100.7 x10_4/uL
  RBC: 595.4 x10_4/ul
  Ret: 9.8%
  WBC: 116.2 x10_2/uL
[3]
  APTT: 18.6 s
  Bas: 0.8%
  Fbg: 249.8 mg/dL
  Hb: 13.2 g/dL
  Ht: 38.2%
  Lym: 65.8%
  MCH: 21.3 pg
  MCHC: 34.5%
  MCV: 61.7 fL
  Mono: 3.2%
  Neu: 29.2%
  PT: 11.6 s
  Plat: 117.7 x10_4/uL
  RBC: 619.8 x10_4/ul
  Ret: 7.2%
  WBC: 111.3 x10_2/uL
[4]
  KIDNEY_L: 1 g
  KIDNEY_R: 1 g
  KIDNEY_TOTAL: 1.9 g
24 h, tissue Kidney, dose level Low
  KIDNEY_TOTAL: 2.1 g
[5]
  A/G: 2
  ALP: 879 IU/L
  ALT: 40.4 IU/L
  AST: 70.2 IU/L
  BUN: 15.4 mg/dL
  CRE: 0.5 mg/dL
  Ca: 10.4 mg/dL
  Cl: 106.2 meq/L
  DBIL: 0.006 mg/dL
  GLC: 197.2 mg/dL
  IP: 8.4 mg/dL
  K: 4.9 meq/L
  LDH: 146 IU/L
  Na: 138.8 meq/L
